Data reported in patent US9029355B2, “Solid ganaxolone compositions and methods for the making and use thereof” (Marinus Pharmaceuticals, priority 2005, dated 2015).

Test: Solubility of ganaxolone using water soluble beta cyclodextrins
Format: physicochemical
Details: water soluble beta cyclodextrins (beta-sulfobutyl-cyclodextrin, 2-hydroxypropylbetacyclodextrin)
From the text: Ganaxolone formulations suitable for intramuscular, subcutaneous, or intravenous injection may comprise physiologically acceptable sterile aqueous or non-aqueous solutions, dispersions, suspensions or emulsions, and sterile powders for reconstitution into sterile injectable solutions or dispersions. Examples of suitable aqueous and non-aqueous carriers, diluents, solvents, or vehicles including water, ethanol, polyols (propylene glycol, polyethylene-glycol, glycerol, cremophor and the like), suitable mixtures thereof, vegetable oils (such as olive oil) and injectable organic esters such as ethyl oleate. Additionally, Ganaxolone can be dissolved at concentrations of >1 mg/ml using water soluble beta cyclodextrins (e.g. beta-sulfobutyl-cyclodextrin and 2-hydroxypropylbetacyclodextrin. Proper fluidity can be maintained, for example, by the use of a coating such as lecithin, by the maintenance of the required particle size in the case of dispersions, and by the use of surfactants. Ganaxolone formulations suitable for subcutaneous injection may also contain additives such as preserving, wetting, emulsifying, and dispensing agents. Prevention of the growth of microorganisms can be ensured by various antibacterial and antifungal agents, such as parabens, benzoic acid, benzyl alcohol, chlorobutanol, phenol, sorbic acid, and the like. […]

`CC(=O)[C@H]1CC[C@H]2[C@@H]3CC[C@H]4C[C@](C)(O)CC[C@]4(C)[C@H]3CC[C@]12C` [Ganaxolone, 3α-hydroxy-3β-methyl-5α-pregnan-20-one] showed a concentration dissolved of over 1000 µg/mL.
